According to patent US20130210907A1, “METHOD FOR PREVENTING OR TREATING ENTEROCHROMAFFIN CELL HYPERPLASIA-RELATED DISEASES BY QUERCETIN ADMINISTRATION” (HONG KONG BAPTIST UNIVERSITY, priority 2012, published 2013):

Columns and labels:
PI-IBS rats = assay: Mechanical stimuli (CRD)-induced 5-HT release: colonic 5-HT content with or without CRD; assay type: in vivo, rat; conditions: for 5-HT content of tissue, +CRD: after CRD; for 5-HT content of tissue, -CRD: without CRD; for Decrease of colon tissue 5-HT content after CRD application: not significant
Protocol: 5-HT content in the colon tissue is assayed based on our previously reported procedure in Qi S D, Tian S L, Xu H X, Sung J J, Bian Z X. Quantification of luminally released serotonin in rat proximal colon by capillary electrophoresis with laser-induced fluorescence detection. Anal Bioanal Chem. 2009 April; 393(8):2059-66. Briefly, the colon segment is homogenized in 15% iced trichloroacetic acid; for 2 min and stored at 4° C. for 2 h. After centrifuge at 10,000 G for 15 min, the supernatant of each sample is filtered using 0.22 μm filters and extracted with diethyl ether for five times to remove the trichloroacetic acid. The prepared samples are added to derivatization solution (150 mM sodium tetraborate, 25% acetonitrile, 2 mM CFSE) and incubated for […] in dark at room temperature. The 5-HT content is analyzed by capillary electrophoresis with laser-induced fluorescence detection and expressed as nanogram per milligram (wet weight of tissue).
To determine whether mechanical stimuli (CRD) can induce colonic 5-HT release in PI-IBS rats, and whether Quercetin has effect on it, 5-HT content in colonic tissue is evaluated in rats with or without AWR test. The colon tissues for 5-HT content determination are collected from the rats from Example 1 and Example 2, and the methods for 5-HT content determination are followed as described in Example 2.

p-Cdc-2 = assay: Western blot of p-Cdc-2 in QGP-1 cells; assay type: cell-based, human; conditions: QGP-1, 50-100 μM, 24 h
Protocol: After drug treatment, the cells are lysed and centrifuged to collect the protein extract After determination of protein content, the samples protein are denatured at 100° C. for 5 min Proteins are separated by 10-12% SDS-PAGE and transferred to PVDF membranes (Bio-Rad, CA). After blocking with 5% nonfat milk for 1 h at room temperature, the membranes are incubated overnight at 4° C. with primary antibodies (mouse anti-cyclin BE 1:500, Abcam; goat anti-p-Cdc2:1:500, Santa Cruz; mouse anti-p21: 1:500, BD Bioscience). After washing three times in TBST, the membranes where incubated with the appropriate secondary antibodies (1:2000, Invitrogen) for 1 h at room temperature. The immunoreaction is detected using ECL Western blotting kit (ECL, Amersham, UK). Bands are visualized on Biomax X-ray film, and optical density of each band is semi-quantified by software (Image J.NIH). In order to adjust for any variations in loading, all detected protein bands are normalized to β-actin levels.

## O=c1c(O)c(-c2ccc(O)c(O)c2)oc2cc(O)cc(O)c12 [Quercetin, 2-(3,4-dihydroxyphenyl)-3,5,7-trihydroxy-4H-chromen-4-one]
PI-IBS rats; 5 mg/kg i.g.
  5-HT content of tissue, +CRD: 4.96 ± 0.91^ ng/mg
  5-HT content of tissue, -CRD: 5.15 ± 0.58 ng/mg
PI-IBS rats; 10 mg/kg i.g.
  5-HT content of tissue, +CRD: 4.29 ± 0.58^ ng/mg
  5-HT content of tissue, -CRD: 4.63 ± 0.92 ng/mg
PI-IBS rats; 20 mg/kg i.g.
  5-HT content of tissue, +CRD: 4.01 ± 1.14 ng/mg
  5-HT content of tissue, -CRD: 5.50 ± 0.65^ ng/mg
PI-IBS rats; low dose
  Decrease of colon tissue 5-HT content after CRD application: ~3.67%
PI-IBS rats; median dose
  Decrease of colon tissue 5-HT content after CRD application: ~7.34%
p-Cdc-2
  Protein level of p-Cdc-2: significantly decrease
